We go through one molecule from patent publication US12514938B2, “Fibroblast activation protein targeting peptides” (PERSPECTIVE THERAPEUTICS, INC., priority 2023, dated 2026).

*1 amine or outer side, *2 acyl side, *3 side chain or, on linkers, in order; H or OH if unused. Where a SMILES comes first, the peptide text is derived from it. Bridges are numbered along the chain shown (N, C = ends). The star is where a group is joined. X1 = NC(=O)CN1CCN(CC(=O)O)CCN(CC(=O)*)CCN(CC(=O)O)CC1; oXylylene = c1ccc(C[*:2])c(C[*:1])c1; PEG2 = NCCOCCOCCC(=O)O

As a reminder, the Ki is the dissociation constant of the complex between target and ligand, obtained from inhibition or displacement.

Common to all, as to assay type: biochemical
For experiment [1], the target named is T1, human FAP (Homo sapiens, UniProt Q12884).
T1 sequence (Q12884 1-760): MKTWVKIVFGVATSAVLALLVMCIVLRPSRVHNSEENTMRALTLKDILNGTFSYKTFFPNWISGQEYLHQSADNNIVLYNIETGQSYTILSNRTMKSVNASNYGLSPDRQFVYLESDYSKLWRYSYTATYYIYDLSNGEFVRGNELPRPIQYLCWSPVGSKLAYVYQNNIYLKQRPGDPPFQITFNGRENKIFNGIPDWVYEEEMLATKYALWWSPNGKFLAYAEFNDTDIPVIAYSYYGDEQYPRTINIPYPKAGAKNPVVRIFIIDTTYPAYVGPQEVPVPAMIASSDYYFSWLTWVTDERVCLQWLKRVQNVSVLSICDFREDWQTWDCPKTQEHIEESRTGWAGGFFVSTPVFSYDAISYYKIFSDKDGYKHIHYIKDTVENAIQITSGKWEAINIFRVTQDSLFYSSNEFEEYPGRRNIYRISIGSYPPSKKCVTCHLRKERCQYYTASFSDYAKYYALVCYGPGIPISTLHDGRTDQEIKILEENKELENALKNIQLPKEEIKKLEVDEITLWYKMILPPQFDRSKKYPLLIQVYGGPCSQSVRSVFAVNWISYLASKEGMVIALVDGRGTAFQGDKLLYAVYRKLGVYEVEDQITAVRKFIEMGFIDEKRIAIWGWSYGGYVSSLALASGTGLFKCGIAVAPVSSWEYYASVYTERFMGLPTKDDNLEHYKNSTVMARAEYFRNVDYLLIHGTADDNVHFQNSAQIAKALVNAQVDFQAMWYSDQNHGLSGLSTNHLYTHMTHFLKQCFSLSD
The experiment can be described thus: Enzyme inhibition assay, binding specificity of VMT-FAP-2-59 (Example 3). The settings on record: 50 μM Z-GP-AMC. On the procedure: (§1) The enzyme inhibition assay was performed to determine inhibitor constant (i.e., Ki) values against human FAP, mouse FAP, human dipeptidyl peptidase 4 (DPPIV) and human prolyl endopeptidase (PREP). Z-GP-AMC was used as substrate for human FAP, mouse FAP and human PREP. GP-AMC was used as substrate for human DPPIV. To perform the assay, VMT-FAP-2-59 at varying concentrations (i.e. 10^−6 to 10^−12) were incubated with 5 ng hFAP, 5 ng mFAP, 2.5 ng DPPIV, or 5 ng PREP in a black 96-well plate for 10 minutes at RT on a shaker plate. The substrate was added to give a final concentration of 50 μM for Z-GP-AMC and GP-AMC. The total reaction volume per well was 100 μL The reaction was allowed to incubate at RT on a shaker plate for 1 hour protected from light, and then fluorescence was read with a BioTek Synergy LX plate reader at an ex/em (360/40 and 460/40). Experiments were performed in at least duplicate. Buffer only, buffer/enzymes, buffer/substrate and enzyme only were included as controls. Data was plotted in GraphPad Prism and non-linear regression used to calculate IC50 values. Binding kinetics (Kd) of VMT-FAP-2-59 against human FAP, human DPPIV and human PREP were also determined by grating-coupled interferometry (GCI). hFAP, hDPPIV and hPREP proteins were fixed on PCH (N=3) chips or PCP (N=2). […] On PCP chips, binding affinity of VMT-FAP-2-29 to hFAP was determined from 39 pM to 20 nM. Binding affinity to hDPPIV and hPREP was determined at concentration from 39 pM to 50 nM.

In experiment [2] the target is T2, human prolyl endopeptidase (PREP) (Homo sapiens, UniProt P48147).
T2 sequence (P48147 1-710): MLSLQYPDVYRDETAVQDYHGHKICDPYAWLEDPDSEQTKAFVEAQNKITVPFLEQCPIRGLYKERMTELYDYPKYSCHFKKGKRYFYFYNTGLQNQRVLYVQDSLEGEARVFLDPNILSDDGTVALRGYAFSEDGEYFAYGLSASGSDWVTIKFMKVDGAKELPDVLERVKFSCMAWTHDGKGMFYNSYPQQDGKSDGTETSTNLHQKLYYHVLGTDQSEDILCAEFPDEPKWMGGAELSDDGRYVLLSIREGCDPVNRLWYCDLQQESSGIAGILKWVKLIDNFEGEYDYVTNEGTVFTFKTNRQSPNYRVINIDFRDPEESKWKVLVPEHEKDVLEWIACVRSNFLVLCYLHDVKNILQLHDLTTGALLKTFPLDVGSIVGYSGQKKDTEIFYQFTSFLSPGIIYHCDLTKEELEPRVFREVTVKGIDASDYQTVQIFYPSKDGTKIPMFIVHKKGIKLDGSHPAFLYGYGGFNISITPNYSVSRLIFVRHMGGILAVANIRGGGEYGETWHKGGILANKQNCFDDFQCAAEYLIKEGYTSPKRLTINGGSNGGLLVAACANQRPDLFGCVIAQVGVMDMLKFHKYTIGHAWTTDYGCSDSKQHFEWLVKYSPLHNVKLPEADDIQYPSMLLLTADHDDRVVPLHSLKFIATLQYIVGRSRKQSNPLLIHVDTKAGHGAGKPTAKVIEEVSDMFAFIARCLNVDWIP
The description is as above. The conditions noted are these: 50 μM Z-GP-AMC. On the procedure: as §1

Experiment [3] addresses T3, mouse FAP (Mus musculus, UniProt P97321).
T3 sequence (P97321 1-761): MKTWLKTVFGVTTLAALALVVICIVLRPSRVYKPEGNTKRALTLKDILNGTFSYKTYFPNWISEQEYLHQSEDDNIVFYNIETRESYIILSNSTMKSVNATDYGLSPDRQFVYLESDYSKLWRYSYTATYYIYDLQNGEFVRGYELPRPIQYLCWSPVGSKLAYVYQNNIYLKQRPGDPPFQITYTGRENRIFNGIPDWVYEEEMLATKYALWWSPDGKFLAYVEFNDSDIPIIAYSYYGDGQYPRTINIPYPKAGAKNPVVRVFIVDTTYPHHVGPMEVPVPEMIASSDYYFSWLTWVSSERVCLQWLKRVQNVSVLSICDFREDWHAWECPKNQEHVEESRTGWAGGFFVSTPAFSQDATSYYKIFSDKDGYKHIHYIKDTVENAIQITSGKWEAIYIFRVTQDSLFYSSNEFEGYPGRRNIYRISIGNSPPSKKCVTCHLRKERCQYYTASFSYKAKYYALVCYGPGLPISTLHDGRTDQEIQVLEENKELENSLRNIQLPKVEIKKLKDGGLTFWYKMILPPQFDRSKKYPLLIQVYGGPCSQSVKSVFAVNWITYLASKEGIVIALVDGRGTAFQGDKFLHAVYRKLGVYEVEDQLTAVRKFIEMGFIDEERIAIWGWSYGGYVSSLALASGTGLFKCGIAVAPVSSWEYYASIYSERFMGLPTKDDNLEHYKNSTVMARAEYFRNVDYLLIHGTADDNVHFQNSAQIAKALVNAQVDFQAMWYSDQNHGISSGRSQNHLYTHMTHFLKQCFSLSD
The description is as above. The conditions noted are these: 50 μM Z-GP-AMC. On the procedure: as §1

Experiment [4] has as its target human dipeptidyl peptidase 4 (DPPIV) (Homo sapiens, UniProt P27487). Description: Enzyme inhibition assay, binding specificity of VMT-FAP-2-59 (Example 3, substrate GP-AMC). The conditions noted are these: 50 μM GP-AMC. On the procedure: as §1, with “Binding affinity to hDPPIV and hPREP was determined at concentration from 39 pM to 50 nM.” left out

Sequence of human dipeptidyl peptidase 4 (DPPIV) (P27487 whole entry): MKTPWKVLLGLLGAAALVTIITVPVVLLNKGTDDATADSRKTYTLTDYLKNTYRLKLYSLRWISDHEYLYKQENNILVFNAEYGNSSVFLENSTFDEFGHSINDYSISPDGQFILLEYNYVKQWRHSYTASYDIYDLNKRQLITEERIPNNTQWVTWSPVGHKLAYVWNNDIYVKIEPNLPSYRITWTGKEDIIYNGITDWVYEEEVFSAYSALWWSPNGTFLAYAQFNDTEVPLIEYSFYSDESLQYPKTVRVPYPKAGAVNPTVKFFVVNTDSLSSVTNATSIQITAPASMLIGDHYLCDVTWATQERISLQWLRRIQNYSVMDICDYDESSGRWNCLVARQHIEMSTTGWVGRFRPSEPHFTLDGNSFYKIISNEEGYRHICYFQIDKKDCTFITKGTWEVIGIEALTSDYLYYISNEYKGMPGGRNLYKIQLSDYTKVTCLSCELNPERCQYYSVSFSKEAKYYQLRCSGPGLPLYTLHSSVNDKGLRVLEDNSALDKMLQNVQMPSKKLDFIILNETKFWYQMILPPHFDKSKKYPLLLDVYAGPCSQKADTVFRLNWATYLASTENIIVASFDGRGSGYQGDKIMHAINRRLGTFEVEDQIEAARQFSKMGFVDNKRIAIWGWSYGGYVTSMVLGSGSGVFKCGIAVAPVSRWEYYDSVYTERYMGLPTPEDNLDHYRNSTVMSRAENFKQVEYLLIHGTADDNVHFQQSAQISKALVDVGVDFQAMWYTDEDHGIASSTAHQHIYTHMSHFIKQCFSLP

On to `C[C@@H](O)[C@@H]1NC(=O)[C@@H](NC(=O)CCOCCOCCNC(=O)CN2CCN(CC(=O)O)CCN(CC(N)=O)CCN(CC(=O)O)CC2)CSCc2ccccc2CSC[C@@H](C(N)=O)NC(=O)[C@H](Cc2c[nH]c3ccccc23)NC(=O)[C@H](Cc2c[nH]c3ccccc23)NC(=O)[C@H](CCC(N)=O)NC(=O)[C@H](CCC(=O)O)NC(=O)[C@H](Cc2c[nH]c3ccccc23)NC(=O)[C@@H]2CCCN2C1=O` [VMT-FAP-2-59, PSC-PEG2-[C(oXdB)TPWEQWWC]-NH2] ({X1-PEG2}-CTPWEQWWC-NH2; linker 1-9 via oXylylene), for which the Ki in experiment [1] was 0.4 nM; in experiment [2] it was 152 nM; in experiment [3], 4.2 nM; in experiment [4], “No binding”.
